The values below come from patent publication US10517961B2, “Drug formulation based on particulates comprising polysaccharide-vitamin conjugate” (ZY Therapeutics, Inc., priority 2015, dated 2019).

The IC50 is the concentration needed to halve the response being measured.

Molecules are shown by their SMILES.

In the test the test system is human non-small lung cancer cells. Briefly: In vitro cytotoxicity. It counts as cell-based. The following applies: 72 hrs, cell survival ratio.

`CC(=O)O[C@H]1C(=O)[C@@]2(C)[C@H]([C@H](OC(=O)c3ccccc3)[C@]3(O)C[C@H](OC(=O)[C@H](O)[C@@H](NC(=O)c4ccccc4)c4ccccc4)C(C)=C1C3(C)C)[C@]1(OC(C)=O)CO[C@@H]1C[C@@H]2O` [paclitaxel]: the IC50 is about 10 nM.
